From patent publication US8598123B2, “Peptide analogues” (Pfizer Inc., priority 2010, dated 2013)
Where two headings read alike, the source gives them in different places.

Key:
physchem = settings: pH 7.4
Description: LogD octanol (pH 7.4) is a measure of lipophilicity that accounts for both hydrophobic and hydrogen-bonding interactions of a given substrate. This assay is based on shake-flask methodology, performed in a fully automated manner in a 0.1M phosphate buffer pH7.4—octanol system.
After addition of the test substance in DMSO stock solution to the mixture and vigorous agitation followed by separation of the octanol and buffer layers by centrifugation, duplicate samples are removed from each layer and diluted prior to analysis by LC-MS/MS.
The duplicate log D values must be with 0.4 log units of each other and the positive controls must be within 0.2 log units of the known log D value.

[1] = Human liver microsomal stability assay (HLM); type: in vitro ADME; settings: 37° C., 1 h time course, read-out: HLM clearance
Description: (§1) In vitro measurement of substrate metabolism can be determined using the microsomal cytochrome P450 mono-oxygenase system. This is a useful application in ranking clearance of a number of compounds by Phase I (including cytochrome P450) metabolism prior to in vivo assessment Measurement of intrinsic clearance using these methods also allows a comparison of species difference to be made to assist with translation of pharmacokinetic parameters from preclinical to clinical study.
(§2) Rat and Human Liver Microsomal Stability Assay (RLM and HLM Respectively)
(§3) Human and rat Liver microsomal assays were performed using pooled microsomes from the Pfizer Global Supply (BD Gentest™). Chemical reagents were purchased from commercial sources (Sigma-Aldrich) and drug entities synthesised at Pfizer Global Research. Incubation mixtures contained 50 mM phosphate buffer pH 7.4, 5 mM MgCl2, 5 mM isocitric acid and 1 unit/ml isocitric dehydrogenase. The microsomes were defrosted at room temperature and sufficient volumes added to give a final concentration of 0.5 nmol cytochrome P450/ml. Following the addition of 1 μM of substrate, the incubation was pre-incubated at 37° C. for 5 minutes. The reaction was then initiated by the addition of 1 mM NADP and incubation aliquots are taken over a 1 h time course. The reaction was subsequently stopped by addition of acetonitrile cooled on ice. The incubation mixture was then centrifuged and the supernatant removed for injection onto LC-MS/MS system. Providing that the substrate concentration is below the Km, the metabolism should be first order giving a log-linear plot of substrate disappearance over time. The gradient of this line is the first order rate constant (k) and this maybe converted to estimate a substrates intrinsic clearance when factoring in the protein concentration.
(§4) The intrinsic clearance in rat or human liver microsomes is calculated from:
(§5) Where, k=−slope of Ln concentration vs. time (min−1)

[2] = Rat liver microsomal stability assay (RLM); type: in vitro ADME; settings: 37° C., 1 h time course, read-out: RLMclearance
Description: as §1, §2, §3, §4, §5

mu opioid receptor [3] = target: T1, mu opioid receptor (Homo sapiens, UniProt P35372); experiment: Beta-arrestin recruitment assay (DiscoveRx PathHunter); type: cell-based; set-up: host or cells: U2OS cells
Procedure: The ability of agonists to cause recruitment of beta-arrestin to the mu opioid receptor was measured using DiscoveRx PathHunter technology. A pro-linked tagged mu-opioid receptor and an EA-tagged beta-arrestin were expressed in U20S cells and beta-arrestin recruitment measured following the methodology in McGuinness et al., 2009 (J Biomol Screen 14:49-58, Characterizing cannabinoid CB2 receptor ligands using DiscoverRx PathHunter beta-arrestin assay—McGuinness D., Malikzay A., Visconti R., Lin K., Bayne M., Monsma F., Lunn C A.)
Data appear in the Table below under “arrestin EC50” in nM.
Target sequence in this assay (P35372 whole entry, species assumed): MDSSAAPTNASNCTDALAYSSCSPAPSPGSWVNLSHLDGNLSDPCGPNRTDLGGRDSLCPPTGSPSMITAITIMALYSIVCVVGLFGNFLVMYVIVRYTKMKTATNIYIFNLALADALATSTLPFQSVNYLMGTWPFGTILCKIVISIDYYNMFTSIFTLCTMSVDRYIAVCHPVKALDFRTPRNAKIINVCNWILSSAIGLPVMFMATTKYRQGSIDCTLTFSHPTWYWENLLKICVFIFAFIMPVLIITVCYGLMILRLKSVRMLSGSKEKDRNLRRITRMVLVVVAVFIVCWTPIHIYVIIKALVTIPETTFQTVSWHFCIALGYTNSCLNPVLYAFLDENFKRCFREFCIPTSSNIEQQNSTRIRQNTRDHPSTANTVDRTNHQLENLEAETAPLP
Target sequence in this assay (P32121 whole entry partner, species assumed): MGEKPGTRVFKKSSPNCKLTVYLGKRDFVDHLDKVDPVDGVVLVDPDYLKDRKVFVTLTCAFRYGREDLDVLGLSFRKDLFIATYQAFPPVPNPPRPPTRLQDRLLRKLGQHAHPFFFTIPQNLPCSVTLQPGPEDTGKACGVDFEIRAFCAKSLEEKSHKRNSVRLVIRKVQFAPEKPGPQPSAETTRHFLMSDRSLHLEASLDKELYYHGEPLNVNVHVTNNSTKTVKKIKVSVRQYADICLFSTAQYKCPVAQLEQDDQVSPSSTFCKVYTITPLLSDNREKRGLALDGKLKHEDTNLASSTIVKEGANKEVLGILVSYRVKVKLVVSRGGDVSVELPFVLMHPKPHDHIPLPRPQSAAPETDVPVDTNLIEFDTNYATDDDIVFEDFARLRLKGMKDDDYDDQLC

mu opioid receptor [4] = target: T1, mu opioid receptor; experiment: Inhibition of forskolin stimulated cAMP production (alphascreen); type: cell-based; set-up: expressed in transfected cells; host or cells: CHO cells
Procedure: Forskolin Stimulated cAMP
The ability of mu opioid receptor agonists to inhibit forskolin stimulated cAMP production was measured in CHO cells recombinantly expressing the mu opioid receptor, using alphascreen technology as described in Nickolls et al., 2005, with the additional inclusion of 50 uM forskolin in the assay buffer. (J Pharmacol Exp Ther 313; 1281-88, Functional selectivity of melanocortin 4 receptor peptide and non-peptide agonists: Evidence for ligand specific conformational states. Nickolls S A., Fleck B., Hoare S., Maki R.)
Data appear in the Table below under “mu-opioid IC50” in nM.
Target sequence in this assay (P35372 whole entry, species assumed): as the sequence (P35372 whole entry, species assumed) above

[5] = octanol / 0.1M phosphate buffer pH 7.4, positive controls; cited from earlier work
[6] = pH 7.4, human liver microsomes, 1 μM substrate
[7] = pH 7.4, rat liver microsomes, 1 μM substrate
[8] = U20S cells expressing pro-linked tagged mu-opioid receptor and EA-tagged beta-arrestin, read-out: β-Arrestin EC50
[9] = CHO cells recombinantly expressing the mu opioid receptor, 50 uM forskolin, read-out: mu-opioid IC50

Cc1cc(O)cc(C)c1C[C@H](NC(=N)N)C(=O)N[C@H](C)C(=O)NCC(CNC(=N)N)Cc1ccccc1 (mixture of isomers) [Example 2]
logD (physchem): -0.7 | microsomal CLint at 1 μM [1, 6]: 15.9 µL/min/mg | microsomal CLint at 1 μM [2, 7]: 8.5 µL/min/mg | EC50 (mu opioid receptor [3]; [8]): 34.8 nM

Cc1cc(O)cc(C)c1C[C@H](NC(=N)N)C(=O)N[C@H](C)C(=O)NC[C@H](Cc1ccccc1)NC(=N)N [Example 1, N-[Amino(imino)methyl]-2,6-dimethyl-L-tyrosyl-N-[(2S)-2-{[amino(imino)methyl]amino}-3-phenylpropyl]-D-alaninamide]
logD (physchem): -0.2 | microsomal CLint at 1 μM [1, 6]: 10.6 µL/min/mg | microsomal CLint at 1 μM [2, 7]: 8.5 µL/min/mg | EC50 (mu opioid receptor [3]; [8]): 41.4 nM | IC50 (mu opioid receptor [4]; [9]): 26 nM

Cc1cc(O)cc(C)c1C[C@H](N=C(N(C)C)N(C)C)C(=O)N[C@H](C)C(=O)NC[C@H](Cc1ccccc1)NC(=N)N [Example 3]
EC50 (mu opioid receptor [3]): 10000 nM

C[C@@H](NC(=O)[C@H](Cc1ccc(O)cc1)NC(=N)N)C(=O)NC[C@H](Cc1ccccc1)NC(=N)N [Example 4]
logD (physchem): -0.3 | microsomal CLint at 1 μM [1, 6]: 9.54 µL/min/mg | microsomal CLint at 1 μM [2, 7]: 13.4 µL/min/mg | EC50 (mu opioid receptor [3]): 5070 nM

Cc1cc(O)cc(C)c1C[C@H](NC(=N)N)C(=O)N[C@H](C)C(=O)NC[C@H](Cc1ccccc1)NC(=O)CNC(=N)N [Example 5]
EC50 (mu opioid receptor [3]; [8]): 47.6 nM

Cc1cc(O)cc(C)c1C[C@H](NC(=N)N)C(=O)N[C@H](C)C(=O)NC[C@H](Cc1ccccc1)NC(=O)CCNC(=N)N [Example 6]
microsomal CLint at 1 μM [1, 6]: 8 µL/min/mg | microsomal CLint at 1 μM [2, 7]: 8.5 µL/min/mg | EC50 (mu opioid receptor [3]): 162 nM

Cc1cc(O)cc(C)c1C[C@H](NC(=N)N)C(=O)N[C@H](CCCCCC(=O)O)C(=O)NCCCc1ccccc1 [Example 7]
logD (physchem): 0.8 | microsomal CLint at 1 μM [1, 6]: 8.61 µL/min/mg | microsomal CLint at 1 μM [2, 7]: 9.48 µL/min/mg | EC50 (mu opioid receptor [3]): 2460 nM | IC50 (mu opioid receptor [4]): 116 nM

CC(=O)N[C@H](CNC(=O)[C@@H](C)NC(=O)[C@H](Cc1c(C)cc(O)cc1C)NC(=N)N)Cc1ccccc1 [Example 8]
logD (physchem): -0.35 | microsomal CLint at 1 μM [1, 6]: 15.4 µL/min/mg | microsomal CLint at 1 μM [2, 7]: 12.1 µL/min/mg | IC50 (mu opioid receptor [4]; [9]): 26.6 nM

Cc1cc(O)cc(C)c1C[C@H](NC(=N)N)C(=O)N[C@H](C)C(=O)NC[C@@H](N)Cc1ccccc1 [Example 9]
microsomal CLint at 1 μM [1, 6]: 13.6 µL/min/mg | microsomal CLint at 1 μM [2, 7]: 12.9 µL/min/mg | EC50 (mu opioid receptor [3]; [8]): 55.2 nM | IC50 (mu opioid receptor [4]; [9]): 15.3 nM

Cc1cc(O)cc(C)c1C[C@H](NC(=N)N)C(=O)N[C@H](CC[S+](C)[O-])C(=O)NC[C@H](Cc1ccccc1)NC(=N)N (stereo partly drawn) [Example 10, N-alpha-[amino(imino)methyl]-N-[(1R)-1-{[(2S)-2-{[amino(imino)methyl]amino}-3-phenypropyl]carbamoyl}-3-(methylsulfinyl)propyl]-2,6-dimethyl-L-tyrosinamide bis-trifluoroacetate]
EC50 (mu opioid receptor [3]; [8]): 17.6 nM

Cc1cc(O)cc(C)c1C[C@H](NC(=N)N)C(=O)N[C@H](C)C(=O)NCCCc1ccccc1 [Example 11, (S)-2-Guanidino-3-(4-hydroxy-2,6-dimethyl-phenyl)-N-[(R)-1-(3-phenyl-propylcarbamoyl)-ethyl]-propionamide]
logD (physchem; octanol / 0.1 M phosphate buffer): -0.1 | microsomal CLint at 1 μM ([1]; pooled human liver microsomes, pH 7.4, 1 μM substrate): 74 µL/min/mg | microsomal CLint at 1 μM ([2]; pooled rat liver microsomes, pH 7.4, 1 μM substrate): 61 µL/min/mg | IC50 (mu opioid receptor [4]): 8.59 nM

CN(C)CCC=C1c2ccccc2CCc2ccccc21 [amitriptyline]
log D (known value of positive control) [5]: 2.7±0.2

Cc1ncc2n1-c1ccc(Cl)cc1C(c1ccccc1F)=NC2 [midazolam]
log D (known value of positive control) [5]: 3.3±0.2
